Where a SMILES comes first, the peptide text is derived from it. The star is where a group is joined. Cbz = O=C(OCc1ccccc1)*
Experiments:
proteasome = molecular target: T1, proteasome (Rattus norvegicus, UniProt P28075); assay: Assay for chymotrypsin-like activity of the proteasome in PC12 cell lysates (LLVY-AFC substrate); format: cell-based; settings: cells treated overnight with 0.5 μM inhibitor; lysate assayed with 100 μM LLVY-AFC, 37° C., 10 min
T1 construct: endogenous in cells; host or cells: rat PC12 clonal lines (empty vector, or stably expressing human wild-type or A53T alpha-synuclein)
T1 sequence (P28075 60-263): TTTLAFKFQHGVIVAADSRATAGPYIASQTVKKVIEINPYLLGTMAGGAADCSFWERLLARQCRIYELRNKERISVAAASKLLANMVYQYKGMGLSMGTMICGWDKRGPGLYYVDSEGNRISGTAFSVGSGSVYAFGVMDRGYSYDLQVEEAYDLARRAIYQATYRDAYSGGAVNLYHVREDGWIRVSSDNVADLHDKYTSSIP
Protocol: Cells from the different lines were triturated off the dish, centrifuged, and washed in PBS. The resulting pellets were resuspended in 200-500 μl of lysis buffer (10 mM Tris-HCl, pH 7.8, with 1 mM ATP, and 10% glycerol) (Figueiredo-Pereira et al., A new inhibitor of the chymotrypsin-like activity of the multicatalytic proteinase complex (20S proteasome) induces accumulation of ubiquitin-protein conjugates in a neuronal cell. J. Neurochem., 63:1578-1581, 1994). The cells were left for 20 min on ice and then lysed with 30 strokes of a Dounce homogenizer. The lysates were then centrifuged at 10,000×g for 10 min. Fifty micrograms of protein of the resulting supernatants was included in an assay buffer of 100 mM Tris-HCl, pH 8.0, 2 mM CaCl2, 1 mM ATP, and a 100 μM concentration of the fluorogenic substrate LLVY-7-amino-4-trifluoromethyl coumarin (AFC) (Enzyme Systems Products, Livermore, Calif.) in a total final volume of 1 ml. The assay was performed at 37° C. for 10 min (Figueiredo-Pereira et al., 1994, supra). The activity was then measured in a SLM 8000 fluorometer, with assay buffer without lysate as blank. The activity was linear with respect to the amount of protein (in the range of 25-200 μg of protein).

[1] = test system: PC12 cell lines expressing A53T mutant α-synuclein; assay: Trypan blue assay of cell death in mutant A53T α-synuclein PC12 lines; format: cell-based, rat; settings: 50 μM, data not shown
Protocol: The day before the trypan blue assay, subconfluent cultures were rinsed twice with complete medium to remove cells at late stages of degeneration. The following day the cells were triturated off the dish and five drops of the cellular suspension were added in a tube together with five drops of Trypan blue solution (0.4%; Sigma-Aldrich, St. Louis, Mo.). After light mixing, the cells were placed on a glass slide, coverslipped, and visualized under 20× magnification. For each line, three fields of 100 cells each were assessed for the percentage of Trypan blue-positive cells. The results reported are the mean±SEM (n=3).
To test for potential involvement of caspases in cellular degeneration associated with expression of A53T α-synuclein, control, wild-type, and mutant lines were examined for basal caspase-3-like activity, as measured by cleavage of the fluorogenic substrate DEVD-AFC (15 μM; Enzyme Systems Products, Livermore, Calif.). No difference was found in basal activity among cell lines (data not shown). […] It can be concluded that PC12 cell lines expressing A53T mutant α-synuclein display enhanced cellular degeneration that appears nonapoptotic by morphological and biochemical criteria.

With CC(C)C[C@@H](C=O)NC(=O)[C@H](CC(C)C)NC(=O)[C@H](CC(C)C)NC(=O)OCc1ccccc1 [MG132] (Cbz-Leu-Leu-Leu-aldehyde) the “chymotrypsin-like proteasomal activity remaining in lysates of treated cells” value (proteasome) was under 5%.
In the case of Boc-aspartate-fluoromethyl ketone, the “effect on percentage of Trypan blue-positive cells” value [1] is reported as “did not affect”.
